Data set [1] concerns the target D(2) dopamine receptor (Homo sapiens) (UniProt P14416). In words: Agonist activity at human D2L receptor expressed in CHOK1 cells assessed as inhibition of receptor response at 0.1 uM by calcium flux assay relative to control. In kind it is functional, cell-based. A general note: Calcium assays in cells follow changes in intracellular calcium, usually with a dye or a luminescent sensor.

For data set [2] the target is unchanged. In words: Agonist activity at human D2L receptor expressed in CHOK1 cells assessed as inhibition of receptor response at 10 uM by calcium flux assay relative to control. In kind it is functional, cell-based.
Data set [3] has the same target. The data set is described as follows: Antagonist activity at human D2L receptor expressed in CHOK1 cells assessed as inhibition of dopamine-induced calcium flux at 0.1 uM by fluorescence assay relative to control. It counts as functional, cell-based.
Data set [4] shares this target. In words: Antagonist activity at human D2L receptor expressed in CHOK1 cells assessed as inhibition of dopamine-induced calcium flux at 10 uM by fluorescence assay relative to control. In kind it is functional, cell-based.
Data set [5] is filed under the species Homo sapiens. The data set is described as follows: Agonist activity at recombinant human D4.4 expressed in CHOK1 cells assessed as inhibition of receptor response at 0.1 uM by HTRF based cAMP assay relative to control. In kind it is cell-based. On the technique in general: In TR-FRET formats the signal depends on donor and acceptor labels being close together.

The species named for data set [6] is Homo sapiens. In words: Agonist activity at recombinant human D4.4 expressed in CHOK1 cells assessed as inhibition of receptor response at 10 uM by HTRF based cAMP assay relative to control. It counts as cell-based.
Data set [7] concerns the target T1, hERG (KCNH2) (Homo sapiens, UniProt Q12809). The data set is described as follows: (§1) Inhibition of human ERG at 1 uM relative to control.
Data set [8] deals with T1, hERG (KCNH2). In words: (§2) Inhibition of human ERG at 3 uM relative to control.
The target of data set [9] is T1, hERG (KCNH2). The data set is described as follows: (§3) Inhibition of human ERG at 10 uM relative to control.
Data set [10] in a line: Passive permeability in human Caco2 cells. In kind it is ADME, cell-based. As to conditions: caco-2. Background: Passage across Caco-2 layers is used to estimate intestinal permeability.
Data set [11] is described as follows: Efflux ratio of permeability in human Caco2 cells. In kind it is ADME, cell-based. As to conditions: caco-2.
A short description of data set [12]: Stability in human microsomes. Note: time not given here. In kind it is ADME, Microsome.
Data set [13] can be described thus: Stability in rat microsomes. Note: time not given here. It counts as ADME, Microsome.
Data set [14] in a line: Stability in mouse microsomes. Note: time not given here. It counts as ADME, Microsome.
In data set [15] the target is T2, Voltage-gated inwardly rectifying potassium channel KCNH2 (Homo sapiens, UniProt Q12809). The data set is described as §1. Conditions: 1 µM.
T2 sequence (Q12809 whole entry): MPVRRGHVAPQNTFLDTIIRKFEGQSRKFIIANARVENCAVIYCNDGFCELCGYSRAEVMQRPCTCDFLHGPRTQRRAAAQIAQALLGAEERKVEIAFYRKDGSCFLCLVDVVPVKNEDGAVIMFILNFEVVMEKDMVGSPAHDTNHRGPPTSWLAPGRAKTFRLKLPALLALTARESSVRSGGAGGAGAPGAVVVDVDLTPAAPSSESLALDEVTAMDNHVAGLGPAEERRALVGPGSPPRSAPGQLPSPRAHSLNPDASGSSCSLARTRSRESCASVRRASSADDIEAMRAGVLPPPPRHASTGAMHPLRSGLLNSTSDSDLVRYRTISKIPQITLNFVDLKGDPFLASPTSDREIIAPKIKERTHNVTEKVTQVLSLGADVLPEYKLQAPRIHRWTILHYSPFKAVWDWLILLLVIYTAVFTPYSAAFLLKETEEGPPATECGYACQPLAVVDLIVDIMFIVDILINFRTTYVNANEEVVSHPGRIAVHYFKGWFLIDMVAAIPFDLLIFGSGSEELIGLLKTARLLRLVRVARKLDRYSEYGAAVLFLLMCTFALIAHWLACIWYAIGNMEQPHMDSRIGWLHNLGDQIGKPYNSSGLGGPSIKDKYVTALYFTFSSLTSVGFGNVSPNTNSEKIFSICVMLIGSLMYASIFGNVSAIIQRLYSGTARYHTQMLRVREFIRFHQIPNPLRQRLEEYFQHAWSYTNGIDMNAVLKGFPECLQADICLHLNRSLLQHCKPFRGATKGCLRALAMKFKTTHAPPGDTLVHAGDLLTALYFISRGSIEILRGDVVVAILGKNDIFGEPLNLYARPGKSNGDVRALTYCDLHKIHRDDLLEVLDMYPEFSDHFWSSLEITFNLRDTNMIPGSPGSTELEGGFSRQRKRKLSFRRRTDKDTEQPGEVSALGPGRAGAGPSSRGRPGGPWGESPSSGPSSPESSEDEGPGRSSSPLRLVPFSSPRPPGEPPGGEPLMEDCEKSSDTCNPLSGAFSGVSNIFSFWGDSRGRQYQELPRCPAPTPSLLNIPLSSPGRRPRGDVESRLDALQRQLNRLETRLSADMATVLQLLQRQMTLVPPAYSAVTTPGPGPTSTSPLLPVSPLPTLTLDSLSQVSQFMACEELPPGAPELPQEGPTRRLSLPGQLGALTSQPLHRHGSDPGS
In data set [16] the target is T2, Voltage-gated inwardly rectifying potassium channel KCNH2. Described as §2. Conditions: 3 µM.
For data set [17] the target is unchanged. The description is as §3. Conditions: 10 µM.

D(2) dopamine receptor (Homo sapiens), sequence (P14416 whole entry): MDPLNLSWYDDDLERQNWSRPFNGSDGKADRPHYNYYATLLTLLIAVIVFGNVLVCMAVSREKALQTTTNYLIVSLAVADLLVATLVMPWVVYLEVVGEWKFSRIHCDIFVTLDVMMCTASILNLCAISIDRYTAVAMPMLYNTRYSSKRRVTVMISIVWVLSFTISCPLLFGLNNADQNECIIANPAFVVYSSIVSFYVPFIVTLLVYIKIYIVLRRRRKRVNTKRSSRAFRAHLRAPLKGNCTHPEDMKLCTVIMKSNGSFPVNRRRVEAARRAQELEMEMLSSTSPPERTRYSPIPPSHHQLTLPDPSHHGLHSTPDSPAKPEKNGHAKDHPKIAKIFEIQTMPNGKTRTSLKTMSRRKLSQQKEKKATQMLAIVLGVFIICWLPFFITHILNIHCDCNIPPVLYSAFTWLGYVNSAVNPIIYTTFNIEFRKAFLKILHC
T1 sequence (Q12809 whole entry): as the sequence (Q12809 whole entry) above

Usually inhibition stands for the change of the read-out against control, counted positive when it falls. A word on the efflux ratio: it is a quotient of directional permeabilities that is used to spot active efflux. Turning to `CCCN1[C@@H]2COC[C@H]1CN(c1ccccc1OC)C2`, the inhibition amounted to 3% in [1]; 19% in data set [2]; 9% in [3]; 5% in data set [4]; 3% in data set [5]; 3% in data set [6]. In data set [7], the inhibition at 1 µM is 2%. In data set [8], the inhibition at 3 µM is 2%. Further, in data set [9], the inhibition at 10 µM was 12%. Further, the permeability in data set [10] is given as 100%. Further, the efflux ratio in data set [11] was found to be 0.9. Besides, the Stability was found to be 70% in data set [12], 4% in data set [13] and 18% in data set [14].

`CCCN1C[C@H]2OC[C@@H]1C[C@@]2(O)c1ccccc1OC`: the inhibition in data set [1] was 25%; in data set [2] it was 16%; in data set [3], 4%; in data set [4] it was 4%; in data set [5], 4%; in [6], 15%. Also, the inhibition at 1 µM in data set [7] is 3%. Moreover, the inhibition at 3 µM in data set [8] was found to be 4%. For the same compound, in [9], the inhibition at 10 µM worked out at 6%. In [10], the permeability amounted to 100%. Further, the efflux ratio in [11] amounted to 3. Besides, the Stability in data set [12] amounted to 66%; in [13], 53%; in data set [14], 18%.

Regarding `CCCN1[C@H]2CC[C@H]1CC(c1ccc(OC)c(OC)c1)C2` (relative stereo), the inhibition in data set [1] was 6%; in [2], 20%; in [3], 8%; in data set [4] it was 11%; in [5] it was -1%; in data set [6] it was 17%. The inhibition at 1 µM in data set [7] stood at 36%. For the same compound, the inhibition at 3 µM in data set [8] was determined as 62%. Further, in data set [9], the inhibition at 10 µM came to 85%. The same compound returned a permeability in data set [10] of 99%. Besides, the efflux ratio in data set [11] is 3.4. Besides, the Stability turned out to be 50% in data set [12], 4% in [13] and 21% in data set [14].

Turning to `CCCN1[C@H]2CC[C@H]1CC(c1ccccc1OC)C2` (relative stereo; 8a), the “inhibition (INH)” value stood at 22% in data set [15] and 46% in data set [16]. In data set [9], the inhibition at 10 µM stood at 74%. Besides, the permeability in data set [10] is reported as 100%. In addition, in [11], the efflux ratio came to 2.9. In addition, the Stability amounted to 25% in [12], 2% in data set [13] and 3% in [14].

Take `CCCN1[C@H]2COC[C@H]1CC(c1ccccc1OC)C2` (relative stereo; 20): the “inhibition (INH)” value in [15] is on record as 17%; in [17], 64%. In addition, the inhibition at 3 µM in [8] stood at 34%. The compound further registered a permeability in data set [10] of 100%. Besides, the efflux ratio in data set [11] was found to be 2.3. Moreover, the results for the Stability in data set [12], in [13] and in data set [14] were 42%, 1% and 2%, respectively.

`CCCN1[C@H]2COC[C@H]1CC(c1ccccc1OC)C2` (relative stereo; 16): the “inhibition (INH)” value in data set [15] stood at 6%; in data set [16] it was 17%; in data set [17], 39%. Also, the Ratio in data set [11] was determined as 3.1. For the same compound, the Stability in data set [12] is recorded as 35%; in data set [14] it was 7%.

As for `CCCN1CCC(c2ccccc2OC)CC1`, the inhibition in data set [1] was 52%; in data set [2] it was 99%; in [3], -7%; in data set [4], 14%; in data set [5] it was 9%; in data set [6] it was 12%. In addition, in data set [7], the inhibition at 1 µM turned out to be 2%. Further, the inhibition at 3 µM in [8] is 5.5%. In addition, the inhibition at 10 µM in data set [9] was found to be 14%. This compound came in with a permeability in [10] of 100%. Besides, the efflux ratio in data set [11] is 1. For the same compound, the Stability is 86% in data set [12], 4% in data set [13] and 30% in data set [14].

Consider `CCCN1[C@H]2CC[C@H]1CC(c1cccc(OC)c1)C2` (relative stereo), for which the inhibition in data set [1] is 9%; in data set [2], 32%; in data set [3], 12%; in data set [4], 13%; in data set [5], 4%; in data set [6], 16%. The inhibition at 1 µM in [7] turned out to be 30%. Moreover, the inhibition at 3 µM in [8] came out at 54%. Also, the inhibition at 10 µM in data set [9] amounted to 81%. For the same compound, the permeability in data set [10] was 100%. The efflux ratio in data set [11] is 2.6. For the same compound, the Stability in data set [12] stood at 4%; in data set [13] it was 2%; in [14], 3%.

For `CCCN1[C@H]2CC[C@H]1CC(c1ccccc1OC)C2` (relative stereo; 4), the “inhibition (INH)” value in data set [15] was determined as 10%; in data set [16], 25%; in data set [17], 56.5%. For the same compound, in data set [10], the permeability worked out at 99.7%. Moreover, the Ratio in data set [11] is reported as 4.1. For the same compound, the Stability amounted to 62% in data set [12] and 6% in data set [14].

Regarding `CCCN1[C@H]2CC[C@H]1CC(c1ccc(OC)cc1)C2` (relative stereo), the inhibition was -1% in data set [1]; 40% in data set [2]; 0% in data set [3]; 9% in data set [4]; 9% in data set [5]; 21% in [6]. In addition, the inhibition at 1 µM in [7] is 58%. The inhibition at 3 µM in data set [8] was found to be 78%. Besides, the inhibition at 10 µM in [9] amounted to 93%. Further, the permeability in data set [10] was determined as 100%. In addition, in [11], the efflux ratio was found to be 3. The Stability in data set [12] is 8%; in data set [13] it was 2%; in data set [14], 5%.

On to `CCCN1C[C@H]2OC[C@@H]1C[C@H]2c1ccccc1OC`, for which the inhibition in [1] was 4%; in [2], 7%; in data set [3] it was -6%; in data set [4], 13%; in data set [5] it was 5%; in [6] it was 21%. Further, in data set [7], the inhibition at 1 µM turned out to be 3%. For the same compound, the inhibition at 3 µM in [8] is 9%. Besides, the inhibition at 10 µM in data set [9] worked out at 22%. Also, the permeability in data set [10] was 100%. Further, in data set [11], the efflux ratio was found to be 0.8. For the same compound, the Stability in data set [12] is 41%; in [13], 3%; in data set [14] it was 9%.

The record behind these values is ChEMBL document CHEMBL4229414, “Design and synthesis of bridged piperidine and piperazine isosteres” (Bioorg Med Chem Lett, 2018).
